# Assay results from BindingDB's records for doi:10.1021/jm970373j (Parke-Davis Pharmaceutical Research, 1998).
# Biological target: Gastrin/cholecystokinin type B receptor (Cavia porcellus)
# Assay: Compound was evaluated for functional activity on Cholecystokinin type B receptor (CCK-B) receptor carried out on guinea pig stomach cells.
row,Structure (SMILES),IC50
1,"CCOC(=O)c1cccc(NC(=O)NNc2nc3ccccc3c(=O)n2-c2cccc(OC(C)C)c2)c1 [N-(3-ethylesterbenzoicacid)-2-[3,4-dihydro-3-[(3-Isopropoxy)phenyl]-4-oxo-2-quinazolinyl]hydrazinecarboxamide]",22 nM
2,"CC(C)Oc1cccc(-n2c(NNC(=O)Nc3ccc(Br)cc3)nc3ccccc3c2=O)c1 [N-(4-Bromophenyl)-2-[3,4-dihydro-3-[3-(1-methylethoxy)phenyl]-4-oxo-2-quinazolinyl]hydrazinecarboxamide]",54 nM
3,"CCOC(=O)c1cccc(NC(=O)NNc2nc3ccccc3c(=O)n2-c2ccc(Cl)cc2)c1 [N-(3-ethylesterbenzoicacid)-2-[3,4-dihydro-3-[(4-chloro)-phenyl]-4-oxo-2-quinazolinyl]hydrazinecarboxamide]",33 nM
